In article PMC2119350 (The Journal of Experimental Medicine, 1992):

Experiments:
I-Ed = I-Ed (Mus musculus, UniProt P01904+P01915); conditions: pH 5 as compared with pH 7; cited from earlier work
I-Ak = I-Ak (Mus musculus, UniProt P01910+P06343); test: Peptide binding immunoassay; conditions: 250 μM unlabeled HEL(46-61) vs biotin-HEL(46-61), 68 h

nonspecific signal remaining with unlabeled competitor (I-Ak) | Substance | apparent affinity (I-Ed) | apparent concentration (number) of peptide-binding sites (I-Ed) | effect on dissociation (I-Ed) | rate of association (I-Ed)
– | GMNAWVAWRNR.CKGTDVY [HEL(104-120)] | increased | increased | no measurable effect | increased
< 10 % of maximal absorbance | NTDGSTDYGILQINSR [HEL(46-61)] | – | – | – | –
